# Data taken from patent publication US8802597B2, “Herbicidal pyrimidines” (E I du Pont de Nemours and Company, priority 2003, dated 2014).
# How the values were obtained:
# Assay in all cases: Test C pre/postemergence
# Format in all cases: in vivo
# [1] = test system: lambsquarters (Chenopodium album); conditions: for Lambsquarters plant response rating: scale 0 to 100 (0 no effect, 100 complete control)
# Summary of the method: (§1)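 Greenhouse herbicide screen, visual readout. Compound in solvent/surfactant applied preemergence at planting or postemergence to 1- to 4-leaf plants; assessed at 12–14 days on a 0–100 control scale.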
# [2] = test system: bermudagrass (Cynodon dactylon); conditions: for Bermudagrass plant response rating: scale 0 to 100 (0 no effect, 100 complete control)
# Summary of the method: as §1
# [3] = test system: pigweed (Amaranthus retroflexus); conditions: for Pigweed plant response rating: scale 0 to 100 (0 no effect, 100 complete control)
# Summary of the method: as §1
# [4] = test system: soybean (Glycine max); conditions: for Soybean plant response rating: scale 0 to 100 (0 no effect, 100 complete control)
# Summary of the method: as §1
# [5] = test system: cocklebur (Xanthium strumarium); conditions: for Cocklebur plant response rating: scale 0 to 100 (0 no effect, 100 complete control)
# Summary of the method: as §1
# [6] = test system: goosegrass (Eleusine indica); conditions: for Goosegrass plant response rating: scale 0 to 100 (0 no effect, 100 complete control)
# Summary of the method: as §1
# [7] = test system: eastern black nightshade (Solanum ptycanthum); conditions: Preemergence
# Summary of the method: as §1
# [8] = test system: common ragweed (Ambrosia elatior); conditions: for Ragweed plant response rating: scale 0 to 100 (0 no effect, 100 complete control)
# Summary of the method: as §1
# [9] = test system: common (oilseed) sunflower (Helianthus annuus); conditions: Preemergence
# Summary of the method: as §1
# [10] = test system: johnsongrass (Sorghum halepense); conditions: for Johnsongrass plant response rating: scale 0 to 100 (0 no effect, 100 complete control)
# Summary of the method: as §1
# [11] = test system: kochia (Kochia scoparia); conditions: for Kochia plant response rating: scale 0 to 100 (0 no effect, 100 complete control)
# Summary of the method: as §1
# [12] = test system: velvetleaf (Abutilon theophrasti); conditions: for Velvetleaf plant response rating: scale 0 to 100 (0 no effect, 100 complete control)
# Summary of the method: as §1
# [13] = Postemergence, 250 g ai/ha, scale 0 to 100
# [14] = Postemergence, 500 g ai/ha, scale 0 to 100
# [15] = Preemergence, 62 g ai/ha, scale 0 to 100, 0 no effect, 100 complete control
# [16] = Preemergence, 125 g ai/ha, scale 0 to 100
# [17] = Preemergence, 250 g ai/ha, scale 0 to 100
# [18] = Preemergence, 500 g ai/ha, scale 0 to 100
# [19] = 62 g ai/ha, scale 0 to 100, 0 no effect, 100 complete control
compound,measurement,setting,value
CNN=Cc1nc(C2CC2)nc(N)c1Br [Compound 49],Lambsquarters plant response rating,"[1]; Postemergence, 62 g ai/ha",70
same,Lambsquarters plant response rating,"[1]; Postemergence, 125 g ai/ha",90
same,"Plant response rating, Lambsquarters",[1]; [13],95
same,"Plant response rating, Lambsquarters",[1]; [14],95
same,"Plant response rating, Lambsquarters",[1]; [15],100
same,"Plant response rating, Lambsquarters",[1]; [16],100
same,"Plant response rating, Lambsquarters",[1]; [17],100
same,"Plant response rating, Lambsquarters",[1]; [18],100
same,Bermudagrass plant response rating,"[2]; Postemergence, 62 g ai/ha",0
same,Bermudagrass plant response rating,"[2]; Postemergence, 125 g ai/ha",55
same,"Plant response rating, Bermudagrass",[2]; [13],55
same,"Plant response rating, Bermudagrass",[2]; [14],65
same,"Plant response rating, Bermudagrass",[2]; [15],0
same,"Plant response rating, Bermudagrass",[2]; [16],0
same,"Plant response rating, Bermudagrass",[2]; [17],85
same,"Plant response rating, Bermudagrass",[2]; [18],95
same,Pigweed plant response rating,"[3]; Postemergence, 62 g ai/ha",65
same,Pigweed plant response rating,"[3]; Postemergence, 125 g ai/ha",80
same,"Plant response rating, Pigweed",[3]; [13],95
same,"Plant response rating, Pigweed",[3]; [14],95
same,"Plant response rating, Pigweed",[3]; [15],85
same,"Plant response rating, Pigweed",[3]; [16],90
same,"Plant response rating, Pigweed",[3]; [17],100
same,"Plant response rating, Pigweed",[3]; [18],100
same,Soybean plant response rating,"[4]; Postemergence, 62 g ai/ha",95
same,Soybean plant response rating,"[4]; Postemergence, 125 g ai/ha",95
same,"Plant response rating, Soybean",[4]; [13],95
same,"Plant response rating, Soybean",[4]; [14],100
same,"Plant response rating, Soybean",[4]; [15],0
same,"Plant response rating, Soybean",[4]; [16],70
same,"Plant response rating, Soybean",[4]; [17],90
same,"Plant response rating, Soybean",[4]; [18],90
same,Cocklebur plant response rating,"[5]; Postemergence, 62 g ai/ha",75
same,Cocklebur plant response rating,"[5]; Postemergence, 125 g ai/ha",95
same,"Plant response rating, Cocklebur",[5]; [13],95
same,"Plant response rating, Cocklebur",[5]; [14],95
same,"Plant response rating, Cocklebur",[5]; [15],20
same,"Plant response rating, Cocklebur",[5]; [16],95
same,"Plant response rating, Cocklebur",[5]; [17],95
same,"Plant response rating, Cocklebur",[5]; [18],100
same,Goosegrass plant response rating,"[6]; Postemergence, 62 g ai/ha",0
same,Goosegrass plant response rating,"[6]; Postemergence, 125 g ai/ha",0
same,"Plant response rating, Goosegrass",[6]; [13],20
same,"Plant response rating, Goosegrass",[6]; [14],25
same,"Plant response rating, Goosegrass",[6]; [15],0
same,"Plant response rating, Goosegrass",[6]; [16],0
same,"Plant response rating, Goosegrass",[6]; [17],0
same,"Plant response rating, Goosegrass",[6]; [18],15
same,"Plant response rating, Nightshade",[7]; [19],95
same,"Plant response rating, Nightshade","[7]; 125 g ai/ha, scale 0 to 100",100
same,"Plant response rating, Nightshade","[7]; 250 g ai/ha, scale 0 to 100",100
same,"Plant response rating, Nightshade","[7]; 500 g ai/ha, scale 0 to 100",100
same,Ragweed plant response rating,"[8]; Postemergence, 62 g ai/ha",45
same,Ragweed plant response rating,"[8]; Postemergence, 125 g ai/ha",65
same,"Plant response rating, Ragweed",[8]; [13],75
same,"Plant response rating, Ragweed",[8]; [14],90
same,"Plant response rating, Ragweed",[8]; [15],70
same,"Plant response rating, Ragweed",[8]; [16],100
same,"Plant response rating, Ragweed",[8]; [17],100
same,"Plant response rating, Ragweed",[8]; [18],100
same,"Plant response rating, Sunflower",[9]; [19],15
same,"Plant response rating, Sunflower","[9]; 125 g ai/ha, scale 0 to 100",75
same,"Plant response rating, Sunflower","[9]; 250 g ai/ha, scale 0 to 100",100
same,"Plant response rating, Sunflower","[9]; 500 g ai/ha, scale 0 to 100",100
same,Johnsongrass plant response rating,"[10]; Postemergence, 125 g ai/ha",20
same,"Plant response rating, Johnsongrass",[10]; [13],35
same,"Plant response rating, Johnsongrass",[10]; [14],70
same,"Plant response rating, Johnsongrass",[10]; [15],45
same,"Plant response rating, Johnsongrass",[10]; [16],65
same,"Plant response rating, Johnsongrass",[10]; [17],80
same,"Plant response rating, Johnsongrass",[10]; [18],85
same,Kochia plant response rating,"[11]; Postemergence, 62 g ai/ha",20
same,Kochia plant response rating,"[11]; Postemergence, 125 g ai/ha",45
same,"Plant response rating, Kochia",[11]; [13],95
same,"Plant response rating, Kochia",[11]; [14],100
same,"Plant response rating, Kochia",[11]; [15],100
same,"Plant response rating, Kochia",[11]; [16],100
same,"Plant response rating, Kochia",[11]; [17],100
same,"Plant response rating, Kochia",[11]; [18],100
same,Velvetleaf plant response rating,"[12]; Postemergence, 62 g ai/ha",45
same,Velvetleaf plant response rating,"[12]; Postemergence, 125 g ai/ha",70
same,"Plant response rating, Velvetleaf",[12]; [13],75
same,"Plant response rating, Velvetleaf",[12]; [14],80
same,"Plant response rating, Velvetleaf",[12]; [15],15
same,"Plant response rating, Velvetleaf",[12]; [16],70
same,"Plant response rating, Velvetleaf",[12]; [17],90
same,"Plant response rating, Velvetleaf",[12]; [18],100
CN(C)N=Cc1nc(C2CC2)nc(N)c1Br [Compound 50],Lambsquarters plant response rating,"[1]; Postemergence, 62 g ai/ha",70
same,Lambsquarters plant response rating,"[1]; Postemergence, 125 g ai/ha",75
same,"Plant response rating, Lambsquarters",[1]; [13],80
same,"Plant response rating, Lambsquarters",[1]; [14],85
same,"Plant response rating, Lambsquarters",[1]; [15],95
same,"Plant response rating, Lambsquarters",[1]; [16],100
same,"Plant response rating, Lambsquarters",[1]; [17],100
same,"Plant response rating, Lambsquarters",[1]; [18],100
same,Bermudagrass plant response rating,"[2]; Postemergence, 62 g ai/ha",50
same,Bermudagrass plant response rating,"[2]; Postemergence, 125 g ai/ha",75
same,"Plant response rating, Bermudagrass",[2]; [13],90
same,"Plant response rating, Bermudagrass",[2]; [14],95
same,"Plant response rating, Bermudagrass",[2]; [16],0
same,"Plant response rating, Bermudagrass",[2]; [17],0
same,"Plant response rating, Bermudagrass",[2]; [18],95
same,Pigweed plant response rating,"[3]; Postemergence, 62 g ai/ha",75
same,Pigweed plant response rating,"[3]; Postemergence, 125 g ai/ha",80
same,"Plant response rating, Pigweed",[3]; [13],85
same,"Plant response rating, Pigweed",[3]; [14],95
same,"Plant response rating, Pigweed",[3]; [15],75
same,"Plant response rating, Pigweed",[3]; [16],90
same,"Plant response rating, Pigweed",[3]; [17],95
same,"Plant response rating, Pigweed",[3]; [18],100
same,Soybean plant response rating,"[4]; Postemergence, 62 g ai/ha",95
same,Soybean plant response rating,"[4]; Postemergence, 125 g ai/ha",95
same,"Plant response rating, Soybean",[4]; [13],100
same,"Plant response rating, Soybean",[4]; [14],100
same,"Plant response rating, Soybean",[4]; [15],0
same,"Plant response rating, Soybean",[4]; [16],60
same,"Plant response rating, Soybean",[4]; [17],75
same,"Plant response rating, Soybean",[4]; [18],90
same,Cocklebur plant response rating,"[5]; Postemergence, 62 g ai/ha",40
same,Cocklebur plant response rating,"[5]; Postemergence, 125 g ai/ha",40
same,"Plant response rating, Cocklebur",[5]; [13],65
same,"Plant response rating, Cocklebur",[5]; [14],90
same,"Plant response rating, Cocklebur",[5]; [15],70
same,"Plant response rating, Cocklebur",[5]; [16],85
same,"Plant response rating, Cocklebur",[5]; [17],95
same,"Plant response rating, Cocklebur",[5]; [18],95
same,Goosegrass plant response rating,"[6]; Postemergence, 62 g ai/ha",0
same,Goosegrass plant response rating,"[6]; Postemergence, 125 g ai/ha",0
same,"Plant response rating, Goosegrass",[6]; [13],0
same,"Plant response rating, Goosegrass",[6]; [14],0
same,"Plant response rating, Goosegrass",[6]; [15],0
same,"Plant response rating, Goosegrass",[6]; [16],0
same,"Plant response rating, Goosegrass",[6]; [17],0
same,"Plant response rating, Goosegrass",[6]; [18],0
same,"Plant response rating, Nightshade",[7]; [19],95
same,"Plant response rating, Nightshade","[7]; 125 g ai/ha, scale 0 to 100",100
same,"Plant response rating, Nightshade","[7]; 250 g ai/ha, scale 0 to 100",100
same,"Plant response rating, Nightshade","[7]; 500 g ai/ha, scale 0 to 100",100
same,Ragweed plant response rating,"[8]; Postemergence, 62 g ai/ha",20
same,Ragweed plant response rating,"[8]; Postemergence, 125 g ai/ha",45
same,"Plant response rating, Ragweed",[8]; [13],45
same,"Plant response rating, Ragweed",[8]; [14],80
same,"Plant response rating, Ragweed",[8]; [15],70
same,"Plant response rating, Ragweed",[8]; [16],85
same,"Plant response rating, Ragweed",[8]; [17],95
same,"Plant response rating, Ragweed",[8]; [18],100
same,"Plant response rating, Sunflower",[9]; [19],15
same,"Plant response rating, Sunflower","[9]; 125 g ai/ha, scale 0 to 100",55
same,"Plant response rating, Sunflower","[9]; 250 g ai/ha, scale 0 to 100",95
same,"Plant response rating, Sunflower","[9]; 500 g ai/ha, scale 0 to 100",100
same,Johnsongrass plant response rating,"[10]; Postemergence, 62 g ai/ha",0
same,"Plant response rating, Johnsongrass",[10]; [14],60
same,"Plant response rating, Johnsongrass",[10]; [15],0
same,"Plant response rating, Johnsongrass",[10]; [16],55
same,"Plant response rating, Johnsongrass",[10]; [17],65
same,"Plant response rating, Johnsongrass",[10]; [18],85
same,Kochia plant response rating,"[11]; Postemergence, 62 g ai/ha",20
same,Kochia plant response rating,"[11]; Postemergence, 125 g ai/ha",55
same,"Plant response rating, Kochia",[11]; [13],65
same,"Plant response rating, Kochia",[11]; [14],95
same,"Plant response rating, Kochia",[11]; [16],0
same,"Plant response rating, Kochia",[11]; [17],20
same,"Plant response rating, Kochia",[11]; [18],90
same,Velvetleaf plant response rating,"[12]; Postemergence, 62 g ai/ha",50
same,Velvetleaf plant response rating,"[12]; Postemergence, 125 g ai/ha",55
same,"Plant response rating, Velvetleaf",[12]; [13],70
same,"Plant response rating, Velvetleaf",[12]; [14],80
same,"Plant response rating, Velvetleaf",[12]; [15],65
same,"Plant response rating, Velvetleaf",[12]; [16],75
same,"Plant response rating, Velvetleaf",[12]; [17],85
same,"Plant response rating, Velvetleaf",[12]; [18],100
